This is an account of results in patent US20220289691A1, “5-AMINO-SUBSTITUTED PYRAZOLES AND TRIAZOLES AS PEST CONTROL AGENTS” (Bayer Aktiengesellschaft, priority 2019, published 2022).

Molecules are shown by their SMILES. Like-named read-outs stand apart in the source and are kept apart here.

The subject of test [1] is Spodoptera frugiperda. The experiment in a line: Spodoptera frugiperda spray test. Format: in vivo. The conditions noted are these: foliar, 168 h, 100 g/ha, maize leaf discs, after 7 days, read-out: efficacy (caterpillars killed). How it is done: Spodoptera frugiperda—Spray Test Solvent: 78.0 parts by weight of acetone • • 1.5 parts by weight of dimethylformamide Emulsifier: alkylaryl polyglycol ether
(§1) To produce a suitable active compound formulation, 1 part by weight of active compound is dissolved using the stated parts by weight of solvent and made up with water containing an emulsifier concentration of 1000 ppm until the desired concentration is attained. To produce further test concentrations, the formulation is diluted with emulsifier-containing water.
Leaf discs of maize (Zea mays) are sprayed with an active compound formulation of the desired concentration and, after drying, populated with caterpillars of the fall armyworm (Spodoptera frugiperda).
After 7 days, the efficacy in % is determined. 100% means that all the caterpillars have been killed; 0% means that no caterpillar has been killed.

For test [2], the system named is Diabrotica balteata. The test can be described thus: Diabrotica balteata spray test. The conditions noted are these: 168 h, read-out: efficacy (wheat plant growth); for pest or weed control at 500 g/ha: 500 g/ha (=160 μg/cavity); for pest or weed control at 125 g/ha: 125 g/ha (=40 μg/cavity). Format: in vivo. The method, then: Diabrotica balteata—Spray Test Solvent: 78 parts by weight of acetone • • 1.5 parts by weight of dimethylformamide Emulsifier: alkylaryl polyglycol ether
as §1
Pre-swollen wheat grains (Triticum aestivum) are incubated in a multiwell plate filled with agar and a little water for one day (5 seed grains per cavity). The germinated wheat grains are sprayed with an active compound formulation of the desired concentration. Subsequently, each cavity is infected with 10-20 beetle larvae of Diabrotica balteata.
After 7 days, the efficacy in % is determined. 100% means that all wheat plants have grown as in the untreated, uninfected control; 0% means that no wheat plant has grown.

The mark [3] stands for this setting: 100 g/ha (=32 μg/cavity), beetle larvae on wheat, after 7 days.
The mark [4] stands for this setting: beetle larvae on wheat, after 7 days.

Turning to `CC(=O)Nc1nc(-c2ccc(C=NNC(=S)Nc3ccccc3C(C)C)cc2)nn1-c1ccc(OC(F)(F)C(F)(F)F)cc1` [Compound I-096], the pest or weed control at 100 g/ha in test [1] and in test [2] (setting [3]) was 100% each time.
Consider `CC(C)c1ccccc1NC(=S)NN=Cc1ccc(-c2nc(NCCS(C)(=O)=O)n(-c3ccc(OC(F)(F)F)cc3)n2)cc1` [Compound I-093], for which the pest or weed control at 100 g/ha in test [1] and in test [2] (setting [3]) was 100% each time.
For `COC(CCNc1nc(-c2ccc(C=NN=C3SCC(=O)N3c3ccccc3C(C)C)cc2)nn1-c1ccc(OC(F)(F)F)cc1)OC` [Compound I-088], the pest or weed control at 100 g/ha in test [1] and in test [2] (setting [3]) was 100% throughout.
As to `CNc1nc(-c2ccc(C=NNC(=S)Nc3ccccc3C(C)C)cc2C)nn1-c1ccc(OC(F)(F)F)cc1` [Compound I-119], the pest or weed control at 100 g/ha in test [1] and in test [2] (setting [3]) was 100% throughout.
`CC(C)c1ccccc1N1C(=O)CSC1=NN=Cc1ccc(-c2nc(N)n(-c3ccc(OC(F)(F)C(F)(F)F)cc3)n2)cc1` [Compound I-065]: the pest or weed control at 100 g/ha in test [1] and in test [2] (setting [3]) was 100% each time. The pest or weed control at 500 g/ha in test [2] (setting [4]) stood at 100%.
In the case of `CNc1nc(-c2ccc(NC(=O)N=C3SCC(=O)N3c3ccccc3C(C)C)cc2)nn1-c1ccc(OC(F)(F)F)cc1` [Compound I-026], the pest or weed control at 500 g/ha in test [2] (setting [4]) is 80%.
Regarding `CC(C)c1ccccc1NC(=S)NN=Cc1ccc(-c2nc(N)n(-c3ccc(OC(F)(F)F)cc3)n2)cc1` [Compound I-021], the pest or weed control at 100 g/ha in test [1] was 100%. In addition, in test [2] (setting [4]), the pest or weed control at 125 g/ha came to 100% and the pest or weed control at 500 g/ha is 100%.
As to `CCOC(=O)Nc1nc(-c2ccc(NC(=O)N=C3SCC(=O)N3c3ccccc3C(C)C)cc2)nn1-c1ccc(OC(F)(F)F)cc1` [Compound I-116], the pest or weed control at 100 g/ha in test [1] and in test [2] (in Triticum aestivum) was 100% each time.
As for `CNc1nc(-c2ccc(C=NNC(=S)Nc3cc(OC)ccc3C(C)C)cc2)nn1-c1ccc(OC(F)(F)F)cc1` [Compound I-084], the pest or weed control at 100 g/ha in test [1] and in test [2] (setting [3]) was 100% throughout.
For `CNc1nc(-c2ccc(C=NNC(=S)Nc3ccccc3C(C)C)cc2C#N)nn1-c1ccc(OC(F)(F)F)cc1` [Compound I-123], the pest or weed control at 100 g/ha in test [1] and in test [2] (setting [3]) was 100% throughout.
As to `CNc1nc(-c2ccc(C=NN=C3SCC(=O)CN3c3ccccc3C(C)C)cc2)nn1-c1ccc(OC(F)(F)F)cc1` [Compound I-103], the pest or weed control at 100 g/ha in test [1] and in test [2] (setting [3]) was 100% in each case.
In the case of `CC(C)c1ccccc1NC(=S)NN=Cc1ccc(-c2nc(NC3CCOC3)n(-c3ccc(OC(F)(F)F)cc3)n2)cc1` (stereo not shown) [Compound I-068], the pest or weed control at 100 g/ha in test [1] and in test [2] (setting [3]) was 100% each time. Besides, the pest or weed control at 500 g/ha in test [2] (setting [4]) is 100%.
For the molecule `CNc1nc(-c2ccc(C=NNC(=S)Nc3ccccc3C(C)C)cc2)nn1-c1ccc(OC(F)(F)C(F)(F)F)cc1` [Compound I-067], the pest or weed control at 100 g/ha in test [1] and in test [2] (setting [3]) was 100% each time. Further, the pest or weed control at 500 g/ha in test [2] (setting [4]) came to 100%.
`COCCNc1nc(-c2ccc(C=NNC(=S)Nc3ccccc3C(C)C)cc2)nn1-c1ccc(OC(F)(F)F)cc1` [Compound I-072]: the pest or weed control at 100 g/ha in test [1] and in test [2] (setting [3]) was 100% each time.
Consider `CC(=O)Nc1nc(-c2ccc(C=NN=C3SCC(=O)N3c3ccccc3C(C)C)cc2)nn1-c1ccc(OC(F)(F)C(F)(F)F)cc1` [Compound I-099], for which the pest or weed control at 100 g/ha in test [1] was determined as 100%; in test [2] (setting [3]) it was 80%.
As for `CC(C)c1ccccc1N1C(=O)CSC1=NC(=O)Nc1ccc(-c2nc(NC3CC3)n(-c3ccc(OC(F)(F)F)cc3)n2)cc1` [Compound I-029], the pest or weed control at 100 g/ha in test [1] was 100%. In addition, in test [2] (setting [4]), the pest or weed control at 125 g/ha turned out to be 100% and the pest or weed control at 500 g/ha was 100%.
For the molecule `CC(C)c1ccccc1N1C(=O)CSC1=NC(=O)Nc1ccc(-c2nc(N)n(-c3ccc(OC(F)(F)F)cc3)n2)cc1` [Compound I-025], the pest or weed control at 100 g/ha in test [1] came out at 100%. In addition, in test [2] (setting [4]), the pest or weed control at 125 g/ha came to 100% and the pest or weed control at 500 g/ha was 100%.
As to `CC(C)c1ccccc1NC(=S)NN=Cc1ccc(-c2nc(N)n(-c3ccc(OC(F)(F)C(F)(F)F)cc3)n2)cc1` [Compound I-066], the pest or weed control at 100 g/ha in test [1] and in test [2] (setting [3]) was 100% in each case. Besides, the pest or weed control at 500 g/ha in test [2] (setting [4]) was 100%.
With `CC(C)c1ccccc1NC(=S)NN=Cc1ccc(-c2nc(N3CCOCC3)n(-c3ccc(OC(F)(F)F)cc3)n2)cc1` [Compound I-019], the pest or weed control at 100 g/ha in test [1] is 100%. In addition, in test [2] (setting [4]), the pest or weed control at 125 g/ha was 100% and the pest or weed control at 500 g/ha stood at 100%.
Consider `CCNc1nc(-c2ccc(C=NNC(=S)Nc3ccccc3C(C)C)cc2)nn1-c1ccc(OC(F)(F)F)cc1` [Compound I-050], for which the pest or weed control at 100 g/ha in test [1] and in test [2] (setting [3]) was 100% throughout. Moreover, the pest or weed control at 500 g/ha in test [2] (setting [4]) was found to be 100%.
As to `CCOCCNc1nc(-c2ccc(NC(=O)N=C3SCC(=O)N3c3ccccc3C(C)C)cc2)nn1-c1ccc(OC(F)(F)F)cc1` [Compound I-044], the pest or weed control at 100 g/ha was 100% in test [1] and 80% in test [2] (setting [3]). Also, the pest or weed control at 500 g/ha in test [2] (setting [4]) is 80%.
On to `CC(C)c1ccccc1NC(=S)NN=Cc1ccc(-c2nc(NS(=O)(=O)C3CC3)n(-c3ccc(OC(F)(F)F)cc3)n2)cc1` [Compound I-023], for which the pest or weed control at 100 g/ha in test [1] turned out to be 100%. Besides, in test [2] (setting [4]), the pest or weed control at 125 g/ha stood at 100% and the pest or weed control at 500 g/ha was found to be 100%.
Consider `CC(=O)Nc1nc(-c2ccc(NC(=O)N=C3SCC(=O)N3c3ccccc3C(C)C)cc2)nn1-c1ccc(OC(F)(F)C(F)(F)F)cc1` [Compound I-054], for which the pest or weed control at 100 g/ha in test [1] is 100%. Also, the pest or weed control at 500 g/ha in test [2] (setting [4]) was 100%.
Take `CNc1nc(-c2ccc(C=NN=C3SC(C)C(=O)N3c3ccccc3C(C)C)cc2)nn1-c1ccc(OC(F)(F)F)cc1` (stereo not shown) [Compound I-098]: the pest or weed control at 100 g/ha in test [1] and in test [2] (setting [3]) was 100% each time.
Take `CC(=O)Nc1nc(-c2ccc(NC(=O)N=C3SCC(=O)N3c3ccccc3C(C)C)cc2)nn1-c1ccc(OC(F)(F)F)cc1` [Compound I-034]: the pest or weed control at 100 g/ha in test [1] and in test [2] (setting [3]) was 100% in each case. Also, in test [2] (setting [4]), the pest or weed control at 500 g/ha was 100%.
`CNc1nc(-c2ccc(C=NN=C3SCC(=O)N3c3ccccc3C(C)C)cc2C#N)nn1-c1ccc(OC(F)(F)F)cc1` [Compound I-124]: the pest or weed control at 100 g/ha in test [1] and in test [2] (setting [3]) was 100% in each case.
Consider `CON(C)c1nc(-c2ccc(NC(=O)N=C3SCC(=O)N3c3ccccc3C(C)C)cc2)nn1-c1ccc(OC(F)(F)F)cc1` [Compound I-046], for which the pest or weed control at 100 g/ha in test [1] and in test [2] (setting [3]) was 100% in each case. The pest or weed control at 500 g/ha in test [2] (setting [4]) was determined as 100%.
For the molecule `CC(=O)Nc1nc(-c2ccc(C=NNC(=S)Nc3c(C)cccc3C)cc2)nn1-c1ccc(OC(F)(F)F)cc1` [Compound I-011], the pest or weed control at 100 g/ha in test [1] amounted to 100%.
Same read-out and setting: under `COc1ccc(C(C)C)c(N2C(=O)CSC2=NN=Cc2ccc(-c3nc(NCCC#N)n(-c4ccc(OC(F)(F)C(F)(F)F)cc4)n3)cc2)c1` [Compound I-142] stands 100%.
On the same count and under the same terms, the result for `COCCCNc1nc(-c2ccc(NC(=O)N=C3SCC(=O)N3c3ccccc3C(C)C)cc2)nn1-c1ccc(OC(F)(F)F)cc1` [Compound I-081] reads 100%; that for `CC(C)c1ccccc1N1C(=O)CSC1=NN=Cc1ccc(-c2nc(NC3CCOC3)n(-c3ccc(OC(F)(F)F)cc3)n2)cc1` (stereo not shown) [Compound I-069], 100%; that for `COCCNc1nc(-c2ccc(C=NN=C3SCC(=O)N3c3ccccc3C(C)C)cc2)nn1-c1ccc(OC(F)(F)F)cc1` [Compound I-076], 100%.
The same measure, in the same setting: the result for `COCCCNc1nc(-c2ccc(C=NN=C3SCC(=O)N3c3ccccc3C(C)C)cc2)nn1-c1ccc(OC(F)(F)F)cc1` [Compound I-077] reads 100%; that for `CC(C)c1ccccc1N1C(=O)CSC1=NN=Cc1ccc(-c2nc(NCCC#N)n(-c3ccc(OC(F)(F)F)cc3)n2)cc1` [Compound I-092], 100%; that for `COc1ccc(C(C)C)c(NC(=S)NN=Cc2ccc(-c3nc(NCCC#N)n(-c4ccc(OC(F)(F)C(F)(F)F)cc4)n3)cc2)c1` [Compound I-137], 100%.
In the case of `CCOC(CNc1nc(-c2ccc(C=NNC(=S)Nc3ccccc3C(C)C)cc2)nn1-c1ccc(OC(F)(F)F)cc1)OCC` [Compound I-074], the pest or weed control at 100 g/ha in test [1] turned out to be 100%.
For `CC(C)c1ccccc1N1C(=O)CSC1=NN=Cc1ccc(-c2nc(NC3COC3)n(-c3ccc(OC(F)(F)F)cc3)n2)cc1` [Compound I-053], the pest or weed control at 100 g/ha in test [1] was found to be 100%.
